# Assays:
# [1] = system: patients with type 2 diabetes and overt nephropathy; details: in vivo; cited from earlier work
# [2] = monkeys, equivalent dosages orally in gelatin capsules; cited from earlier work
# [3] = system: monocrotaline (MCT)-induced pulmonary arterial hypertension; details: rat, in vivo
compound,measurement,setting,value
COc1ccccc1Oc1c(NS(=O)(=O)c2ccc(C)cn2)nc(-c2ccncc2)nc1OC [Avosentan],"Fluid overload-related adverse events, serious and non-serious",[1],increased only within the first month of treatment
COC(=O)C12CCC(C)(C)CC1C1C(=O)C=C3C4(C)C=C(C#N)C(=O)C(C)(C)C4CCC3(C)C1(C)CC2 (stereo not drawn) [Form B],Bioavailability,[2],higher than that of Form A
CCCc1nn(C)c2c(=O)[nH]c(-c3cc(S(=O)(=O)N4CCN(C)CC4)ccc3OCC)nc12 [sildenafil],Pulmonary edema,[3],completely abrogated

# Reference: patent US20150080465A1 (priority 2013, published 2015)
